Assay results published in patent US11090305B2, “Methods and compositions to reduce oxidative stress” (University of Massachusetts, priority 2009, dated 2021).

Legend:
db/db MSC [1] = assay: Oxidative/nitrative stress in db/db MSC (DCF-DA staining, nitrotyrosine); assay type: cell-based, mouse; settings: db/db MSC in vitro
From the text: Data are expressed as % positive DCF-DA cells/hpf. m±sd, n=5, *p<0.05. […] The db/db MSC expressed a greater oxidative/nitrative stress than WT MSC. […] In summary, in vitro, db/db MSC show greater oxidative nitrostive stress than WT MSCs and this phenotype can be reversed by N-acetylcysteine (NAC).

db/db MSC [2] = assay: Differentiation of db/db MSC towards endothelial cells (CD31 staining); assay type: cell-based, mouse; settings: endogenic medium
Protocol: Endothelial cells were identified by CD31 staining. m±sd, n=4, *P<0.05.
Adipocytes were identified by Oil Red O staining. m±sd, n=4, *p<0.05 vs control. […] Endothelial cells were identified by CD31 staining. m±sd, n=4, *p<0.05 vs control, #p<0.05 vs 5 nM.

db/db MSC [3] = assay: Basal protein expression in db/db MSC (western blot); assay type: cell-based, mouse
HSCs = assay: Competitive HSC transplantation, bone marrow repopulation; assay type: in vivo, mouse; settings: ApoE^−/− donor mice treated before HSC harvest (NAC 4 weeks; SB203580, PD98059 2 weeks)
Protocol: HSC were purified from freshly harvested bone marrow mononuclear cells as c-Kit^+Sca-1^+CD90.1^lowLin^− by FACS sorting. Recipient mice were C57BL/6 (WT) on standard chow. Recipients underwent lethal irradiation (1100 Rads delivered in 2 doses 3 hr apart). Immediately after the 2nd irradiation, recipients were anesthetized (2% isoflurane) and 10^6 HSC/0.1 ml sterile PBS were transplanted via retro-orbital injection. Mice were followed for 12 weeks before study or administration of AOM.
The functional consequence of this loss of quiescence by competitive transplantation was investigated next, insofar as the presence of quiescent HSC are critical for successful bone marrow reconstitution. HSCs from CD45.2 ApoE^−/− or HCD mice were mixed 1:1 with CD45.1 WT HSCs and then transplanted into lethally irradiated CD45.1 WT recipients.
Activation of p38 MAPK reduces HSC quiescence in Atm^−/− mice. To evaluate this phenomena in hypercholesterolemic mice, ApoE^−/− and WT mice were treated with the selective p38 MAPK inhibitor SB203580 or the MEK 1 inhibitor PD98059 for 2 weeks prior to harvest of HSCs for transplant. CD45.2 ApoE^−/− or WT HSCs with mixed 1:1 with CD45.1 WT HSCs and transplanted into lethally irradiated CD45.1 recipient mice.

NKT and γδT cells = assay: NKT and γδT cell populations (flow cytometry, immunostaining); assay type: in vivo, mouse; settings: hypercholesterolemic mice, 4 weeks
From the text: All mice were purchased from Jackson Laboratories (Bar Harbor, Me.) and were maintained in the mouse barrier facility. Care of mice was in accordance with NIH guidelines and the Institutional Animal Care and Use Committee of the University of Massachusetts Medical School approved all protocols. Mice were kept on a 12 hr day/night schedule and were allowed free access to chow and water. ApoE^−/− and WT mice were fed standard mouse chow (5.4 g fat/100 g diet, 0% cholesterol). HCD mice were fed a diet with 10 g fat/100 g diet, […] (Research Diets, New Brunswick, N.J.). […] Azoxymethane (AOM) was given by intraperitoneal injection (10 mg/Kg weekly for 3 weeks); 1% dextran sodium sulfate was added to the drinking water for the Pt week after AOM treatment.
Cells were stained with monoclonal antibodies conjugated to various fluoroprobes. These antibodies included: Notch1, cKit (2B8), Sca-1 (E13-161.7), CD4 (L3T4), CD8 (53-6.72), CD90.1, CD25, CD44, TCRβ, NK1.1, γδTCR, CD45.1, CD45.2. The lineage cocktail consisted of CD4, CD8, B220 (RA3-6B2), TER-119, Mac-1 (MI/70), and Gr-1 (RB6-8C5). All antibodies were purchased from BD Bioscience (San Diego, Calif.). FACS analysis was carried out on a FACS Diva.
The colon and rectum was removed en bloc from each mouse and the number of polyps was identified using a dissecting microscope. Each polyp was frozen in OCT at −80° C. and cryosections (10 μM) cut. H&E staining was used to identify the histological grade of each polyp, assigned by a pathologist blinded to study condition. Standard immunostaining protocol was used to identify γδT cells (monoclonal antibody to γδTCR, DAPI counterstaining) and NKT cells (monoclonal antibodies to TCR and NK1.1, DAPI counterstaining). Sections were viewed with a Zeiss immunofluorescent microscope and Axiovert software.

Fyn = Fyn expression in total thymocyte population; assay type: in vivo, mouse; settings: ApoE^−/− and HCD mice
From the text: Fyn, a member of the Src family of tyrosine kinases, is a critical participant in NKT cell development (33,34). […] FIGS. 55A-55C show Thymocyte Fyn expression is reduced in hypercholesterolemic mice. […] Representative western blots from 3 mice in each group, all run on the same gel, are shown. […] However, in DN3 and DN4 thymocytes, Fyn mRNA expression was less in ApoE^−/− than in WT mice. m±sd, *p<0.05 vs. WT; n=4 mice per group. (C) siRNA for Notch1 reduced mRNA expression of Fyn in WT thymocytes in vitro, with a threshold observed at 1.0 μg siRNA. m±sd, n=3 mice; *p<0.05 vs. random RNA. A representative western blot showing a single experiment run on the same gel is shown. […] These findings indicate that Notch1 and Fyn expression are linked, and that the reduced NKT expression in hypercholesterolemic mice is due, in part, to the Notch1 dependent reduction of Fyn expression in thymocytes. Finally, Fyn expression was determined in the total thymocyte population from WT recipient mice transplanted with ApoE^−/−- or WT-derived HSCs. Thymocyte Fyn expression in WT recipients transplanted with ApoE^−/−-derived HSCs was less than half that observed in WT recipients transplanted with WT-derived HSCs (FIG. 56). […] Fyn expression in thymocytes from the Apoe→WT group was less than in the WT→WT group. m±sd; n=4; *p<0.05 vs. WT→WT group. […]

## CC(=O)N[C@@H](CS)C(=O)O [NAC, N-acetylcysteine]
db/db MSC [1]
  oxidative/nitrative stress (DCF-DA staining, nitrotyrosine accumulation): significantly reduced the presence of oxidative/nitrative stress
db/db MSC [2]
  differentiation towards endothelial cells: increased differentiation towards endothelial cells
db/db MSC [3]
  eNOS expression: no change in eNOS expression
  phospho-eNOS expression: increased phospho-eNOS expression
db/db MSC [3]; basal
  PPARγ expression: reduced basal PPARγ expression
HSCs
  percentage of CD45.2^+ bone marrow mononuclear cells 12 weeks after competitive transplantation: significantly increased the percentage of CD45.2^+ mononuclear cells in recipient bone marrow
NKT and γδT cells; healthy colon
  colonic resident populations of NKT and γδT cells: restored the colonic resident populations of NKT and γδT cells to WT levels
NKT and γδT cells
  numbers of NKT and γδT cells in AOM-induced polyps: significantly increased the numbers of NKT and γδT cells in all grades of AOM-induced polyps
  percentages of γδT cells and NKT cells in the thymus and peripheral blood: reversed by in vivo treatment with NAC for 4 weeks
Fyn
  expression of Fyn in the total thymocyte population: restored in vivo by treatment with NAC
